Source: ChEMBL document CHEMBL1151125, “Constituents of Michelia Rajaniana. Two new germacranolide amides” (1988)

Experiments:
Type in all cases: functional
Conditions in all cases: read-out: ED50 (the source's name)
A549 = assay: Cytotoxicity against human A549 cells
MCF7 = assay: Cytotoxicity against human MCF7 cells
HT-29 = assay: Cytotoxicity against human HT-29 cells

Measured: EC50

CC(=O)NC[C@@H]1C(=O)O[C@H]2[C@H]1[C@@H](O)C/C(C)=C/CC[C@@]1(C)O[C@@H]21
> 100 mg/L: all assays above

CC(=O)NC[C@@H]1C(=O)O[C@H]2[C@H]1CC/C(C)=C/CC[C@@]1(C)O[C@@H]21
> 100 mg/L: all assays above
